The assay has as its target T1, human farnesyl pyrophosphate synthase (hFPPS) (Homo sapiens, UniProt P14324).
T1 construct: gene FDPS; purified protein, homodimer, subunit 42 kDa
T1 sequence (P14324 1-353 isoform P14324-2): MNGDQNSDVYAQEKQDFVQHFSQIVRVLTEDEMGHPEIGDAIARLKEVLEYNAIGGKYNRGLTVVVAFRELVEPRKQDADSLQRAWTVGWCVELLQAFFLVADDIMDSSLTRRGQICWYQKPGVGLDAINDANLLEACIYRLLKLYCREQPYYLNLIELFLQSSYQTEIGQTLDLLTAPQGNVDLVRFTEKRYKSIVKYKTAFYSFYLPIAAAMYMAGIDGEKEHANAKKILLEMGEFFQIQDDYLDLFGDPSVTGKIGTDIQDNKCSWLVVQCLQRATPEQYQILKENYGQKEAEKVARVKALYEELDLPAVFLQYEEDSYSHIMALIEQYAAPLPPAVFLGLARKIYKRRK
As to the kind of experiment: ITC, one-site model. The class given is binding. An excerpt:
ITC, one-site model on human farnesyl pyrophosphate synthase (hFPPS)
Background: Isothermal titration calorimetry measures the heat released or taken up as one component is titrated into another.

The Kd is a measure of binding affinity in units of concentration. Read a low Kd as higher affinity.

Each structure is given as a SMILES string.

The molecule `O=P(O)(O)C(Nc1cncc(-c2ccc(OC3CC3)cc2)c1)P(=O)(O)O` [JDS05120] registered a Kd of 0.12 ± 0.036 µM.

The values above are taken from PMC5643135, “Crystallographic and thermodynamic characterization of phenylaminopyridine bisphosphonates binding to human farnesyl pyrophosphate synthase” (PLoS ONE, 2017).
